Test: gradient 5% acetonitrile 3 min, to 50% in 2 min, to 85% in 15 min, held 3 min, 100 µL/min
Conditions: column: Zorbax Extend-C18 2.1 x 50 mm; eluents: water / acetonitrile, 0.1% formic acid
Procedure, shortened: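 Over 3 months, pure standards in mixtures of ~100 molecules were run by HPLC coupled to a quadrupole time-of-flight mass spectrometer in positive and negative ionization mode. The column was a Zorbax Extend-C18 (2.1 × 50 mm, 1.8 μm) at 100 μL/min, eluted with water and acetonitrile each holding 0.1% formic acid, with 40 μL dead and 900 μL dwell volumes. Retention time was determined from adduct peaks chosen by software and checked manually.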

Row | RP-LC retention time [s] | SMILES
1 | 869 | O=C(Cn1nc2c3sc(N4CCCCC4)nc3ncn2c1=O)Nc1ccc(F)c(Cl)c1
2 | 715 | O=C(c1ccc(F)cc1)N1CCC2(CC1)OCC(C(=O)N1CCCC1)N2C(=O)c1cccc(F)c1 (stereo not drawn)
3 | 925 | c1coc(-c2nnc(-c3cc4ccccc4o3)o2)c1
4 | 984 | CC(C)S(=O)(=O)N1CC(Oc2ccccc2-c2nc(C3CC3)no2)C1
5 | 794 | COc1ccc(OCC2CN(C(=O)Cc3ccc(OC)c(OC)c3OC)CCO2)cc1 (stereo not drawn)
6 | 902 | O=C(Cn1c(=O)cc(-c2nc(C3CC3)no2)c2ccccc21)NCc1ccccc1F
7 | 615 | Cc1ccc(=O)n(CCNC(=O)C2CC(=O)N(c3ccc(C)c(C)c3)C2)n1 (stereo not drawn)
8 | 714 | CC(C)NC(=O)C1CCCN(C(=O)Nc2ccc(NC(=O)Nc3ccc(F)cc3)cc2)C1 (stereo not drawn)
9 | 745 | Cc1nc(-c2ccc(F)cc2)sc1C(=O)N1CCC(C(C)C(=O)N2CCOCC2)CC1 (stereo not drawn)
10 | 750 | CCCCN1CC(c2nc3ccccc3n2CCOc2ccccc2OC)CC1=O (stereo not drawn)
11 | 962 | Cn1nc(-c2nc(Cc3ccccc3)no2)c2c1CCN(C(=O)C1(c3ccccc3)CC1)C2
12 | 868 | CC(=O)N1c2ccc(S(=O)(=O)N3CCCCC3)cc2CC1C(=O)NCCc1ccccc1 (stereo not drawn)
13 | 961 | COc1ccc(-c2nc(C3CC(=O)N(c4ccc(F)cc4)C3)no2)cc1 (stereo not drawn)
14 | 601 | CCN(CC)CCNC(=O)CN1C(=O)C2CCCCN2c2ccc(C(=O)N(C)C)cc21 (stereo not drawn)
15 | 646 | Cc1cccn2c(=O)c(-c3nn[nH]n3)cnc12
16 | 850 | CC(=O)Nc1ccc(C(=O)NC(C(=O)N2CCCc3ccccc32)c2ccccc2)cc1 (stereo not drawn)
17 | 836 | CCCN1C(=O)c2c(C(=O)NCc3ccccc3F)ncn2CC1(C)C(=O)NCCC(C)C (stereo not drawn)
18 | 623 | CCCc1cc(N2CCN(C(=O)c3ccc(OC)nc3)CC2)nc2nnc(CC)n12
19 | 608 | O=S(=O)(c1ccc(N2CCN(c3ccccn3)CC2)nn1)C1CCCCC1
20 | 787 | Cc1noc(-c2cccc(OC3CN(C(=O)c4ccoc4)C3)c2)n1
21 | 589 | COc1ccc(NC(=O)N2CCN(c3cc(C)nc(N4CCOCC4)n3)CC2)c(OC)c1
22 | 608 | O=C(c1ccccc1)N1CCN(c2nnc3ccccn23)CC1

Row | RP-LC retention time [s] | SMILES
23 | 804 | O=C(Cc1c[nH]c2ccccc12)NCCc1c[nH]c2ccc(F)cc12
24 | 817 | Cc1ccc(NC(=O)N2C[C@@H](F)C[C@H]2C(=O)N2CCc3ccccc3C2)cc1C
25 | 847 | Cc1ccc(-n2c(N3CCCC(C(=O)NCC(C)C)C3)nc3ccsc3c2=O)cc1 (stereo not drawn)
26 | 680 | Clc1ccc(C2(c3ccc(-c4cn[nH]c4)cc3)CCNCC2)cc1
27 | 652 | CCC(CC)NC(=O)C1CCCCC(=O)N1 (stereo not drawn)
28 | 773 | COc1ncc(C(=O)NCc2ccc(C(F)(F)F)cc2)cn1
29 | 950 | Cc1ccc(-c2noc(Cn3ccn(-c4cc(C)ccc4C)c(=O)c3=O)n2)cc1
30 | 730 | CCOc1ccc2nc(N3CCCC(C(=O)NCCc4ccc(S(N)(=O)=O)cc4)C3)sc2c1 (stereo not drawn)
31 | 1230 | O=C(Nc1cccc(F)c1)c1c(O)c2cccnc2n(-c2ccccc2)c1=O
32 | 603 | Cc1ccc2c(Nc3ccc(F)c(C#N)c3)c(C(=O)N3CCC(C)CC3)cnc2n1
33 | 618 | COc1cn(CC(=O)NCc2ccc3c(c2)OCO3)c(CSc2ccccc2)cc1=O
34 | 782 | NS(=O)(=O)c1ccc(NS(=O)(=O)c2ccc3onc(C(=O)N4CCCCC4)c3c2)cc1
35 | 1100 | C=CCn1c(=O)c2ccccc2n(Cc2nc(-c3ccc(SC)cc3)no2)c1=O
36 | 719 | Cc1ccc(NC(=O)N2CCCC(Cn3cnc4cccnc43)C2)cc1C (stereo not drawn)
37 | 900 | O=S(=O)(NC1CCCC1)c1ccc(-c2nnc(C3CCC3)o2)o1
38 | 807 | COc1ccc(-c2nnc(-c3ccc(OC)c(S(=O)(=O)N(C)C)c3)o2)cc1OC
39 | 830 | O=C(c1ccc(F)c(F)c1)N1CCC2(CC1)NC(=O)N(Cc1ccc(F)cc1)C2=O
40 | 589 | CC1CCCN(C(=O)c2cc3c(s2)CCN(C(=O)c2ccccc2)C3)C1 (stereo not drawn)
41 | 669 | Cc1cccc(NC(=O)NC2CCN(C(=O)N3C[C@@H]4C[C@H](C3)[C@H]3CCCC(=O)N3C4)CC2)c1
42 | 639 | COC1C(=O)N(CC2CC2)C12CCN(C(=O)C1CC1)CC2 (stereo not drawn)
43 | 625 | COc1ccc(NC(=O)c2c(C)oc3c2C2=NCCN2C=N3)cc1Cl
44 | 931 | O=c1n(Cc2ccccc2)nc2n1CCN(S(=O)(=O)c1ccc3c(c1)CCC3)CC2

Row | RP-LC retention time [s] | SMILES
45 | 780 | Cc1nn(-c2ccc(C(=O)NCc3ccc4c(c3)OCO4)cc2)c2c1C(=O)CCC2
46 | 987 | CC(=O)N1CCC(c2nc(-c3ccc4oc(-c5ccccc5)nc4c3)no2)CC1
47 | 668 | CCCCNS(=O)(=O)c1cc(-c2[nH]ncc2C(=O)N2CCCC2)oc1C
48 | 1130 | CC(C)Cc1ccc(-c2csc(NC(=O)c3cnccn3)n2)cc1
49 | 784 | Cc1ccc(C(C)NC(=O)Cn2ccc3c(C)nn(C)c3c2=O)cc1C (stereo not drawn)
50 | 666 | Cc1ccc2c(C(=O)NCc3cc(F)cc(F)c3)cc(NC(=O)C(C)C)cc2n1
51 | 1300 | Cc1ccc(-c2noc(-c3nn(CC(=O)NC4CCC(C)CC4)c4ccccc34)n2)cc1 (stereo not drawn)
52 | 938 | Cc1ccc(NC(=O)Cn2nc(N3CCCC3)c3ccccc3c2=O)cc1
53 | 750 | CC(=O)N1CCc2cc(N3CC(C(=O)NCc4ccc(C)c(C)c4)CC3=O)ccc21 (stereo not drawn)
54 | 632 | N#Cc1cccc(-c2nc(-c3ccc4c(c3)ncn4CCN3CCCCC3)no2)c1
55 | 784 | Nc1nc(N2CCN(c3ccccc3)CC2)ncc1C(=O)Nc1ccccc1
56 | 769 | COc1ccc2[nH]c(C(=O)N[C@@H](C)C(=O)NCCc3c[nH]c4ccccc34)cc2c1OC
57 | 726 | COc1ccc(Cl)cc1NC(=O)c1cn2c(n1)CCCC2
58 | 851 | CCc1ccc(Oc2cc(N3CCC(C(=O)NCCc4cccs4)CC3)ncn2)cc1
59 | 810 | CCOC(=O)C1CCN(C(=O)C2c3ccccc3C(=O)N(C)C2c2cccs2)CC1 (stereo not drawn)
60 | 872 | Cc1nc(NC2CCCCC2)sc1C(=O)Nc1cccc(F)c1
61 | 810 | O=C(C1CCN(c2nc3ccc(-c4ccccc4)nc3s2)CC1)N1CCOCC1
62 | 762 | CCn1cc(CCNC(=O)Nc2ccsc2C(=O)OC)c2cccnc21
63 | 766 | COC(=O)c1c(NCc2ccc(C)o2)c2cccc(Cl)c2[nH]c1=O
64 | 794 | CCC1Oc2ccc(S(=O)(=O)N3CCC(C(=O)Nc4ccccc4)CC3)cc2NC1=O (stereo not drawn)
65 | 585 | CC(=O)N(Cc1nn(C)c2c1CN(Cc1ccc(OCC(N)=O)cc1)CC2)c1ccccc1
66 | 935 | COc1ccc(OC)c(CNS(=O)(=O)c2cc(-c3cnn4c(C)cc(C)nc34)ccc2OC)c1

Row | RP-LC retention time [s] | SMILES
67 | 1000 | CCCNC(=O)N(CC(=O)N1CCc2sccc2C1COc1ccc(C)cc1)CC1CCCO1 (stereo not drawn)
68 | 742 | Cc1ccc(-c2cc3c(=O)n(Cc4noc(CN5CCC(C)CC5)n4)ccn3n2)cc1C
69 | 735 | COC(=O)c1cccc(NC(=O)C2CCCN(c3nnc4ccc(Cl)cn34)C2)c1 (stereo not drawn)
70 | 630 | O=C(O)c1cc(-c2cccs2)n(C2CCS(=O)(=O)C2)n1 (stereo not drawn)
71 | 638 | COCc1nc2cccnc2n1C1CCN(C(=O)Nc2ccc(OC)cc2OC)CC1
72 | 658 | CC(C)NC(=O)N1CCCC(c2nc(C(C)C)no2)CCNC(=O)CC1 (stereo not drawn)
73 | 943 | COc1cccc(-c2nc(C3CC(=O)N(c4ccccc4)C3)no2)c1 (stereo not drawn)
74 | 908 | O=C(CN1CCN(Cc2ccc(F)cc2Cl)C1=O)N1CCN(c2ccc(F)cc2)CC1
75 | 589 | NC(=O)C1CCN(C(=O)c2ccc(F)cc2)CC1
76 | 1030 | O=C(CSc1nc2ccc([N+](=O)[O-])cc2s1)c1ccc(F)cc1
77 | 1020 | N#Cc1ncc(Cl)c2ccccc12
78 | 942 | O=C(NCc1ccco1)C1CN(S(=O)(=O)c2ccccc2)CC12CCCCC2 (stereo not drawn)
79 | 674 | Cc1ccc(CNS(=O)(=O)c2cc(-c3[nH]ncc3C(=O)N3CCCC3)oc2C)o1
80 | 1150 | Cc1oc2ccn(Cc3ccccc3F)c(=O)c2c1C(=O)NC(C)c1ccccc1 (stereo not drawn)
81 | 1060 | COc1cccc(-c2nc(C3CCN(C(=O)C4COc5ccccc5O4)CC3)no2)c1 (stereo not drawn)
82 | 590 | Cc1ccccc1OCC(=O)N1CC(CN(C)C)C2(CCOCC2)C1 (stereo not drawn)
83 | 863 | Cc1ccc(N2CCN(c3ncc(C(=O)O)c(C)n3)CC2)cc1
84 | 697 | COc1ccccc1NC(=O)N1CCCC1c1nncn1C1CCCC1 (stereo not drawn)
85 | 922 | COc1ccccc1NC(=O)CN1C(=O)C(c2ccc(Cl)cc2)=NC1(C)C
86 | 867 | Cc1nn(CCC(=O)Nc2cccc(Cl)c2)c(=O)c2nn(-c3ccccc3)c(C)c12

Row | SMILES | RP-LC retention time [s]
87 | CCN(CC)C(=O)c1ccc2c(c1)N(CC(=O)NCCOC)C(=O)C1CCCCN21 (stereo not drawn) | 688
88 | COC(=O)c1cncn1C(C)c1ccccc1 (stereo not drawn) | 737

Reference: the METLIN SMRT retention time set (Domingo-Almenara et al. 2019)
